US20240173432A1, “Compositions and Methods for Treatment of Myotonic Dystrophy Type 1 with CRISPR/SluCas9” (Vertex Pharmaceuticals Incorporated, priority 2021, published 2024)

Key:
[1] = tested on: CAG foci in primary DM1 patient myoblasts; assay: Single-cut screening: CAG foci staining; format: cell-based, human; details: single sgRNA; for % of CAG foci positive nuclei (DNA-PKi): DNA-PKi treated
How it was run: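 Primary DM1 patient myoblasts were PFA-fixed and hybridized with […] (1 ng/μL, 15 min at 80° C) in 30% formamide/2×SSC, followed by anti-MBNL1 immunostaining and Hoechst counterstain. CAG RNA foci were quantified by high-content confocal imaging after single-cut SuCas9 sgRNA editing.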

[2] = tested on: CUG foci in primary DM1 patient myoblasts; assay: Single-cut screening: FISH staining of CUG RNA foci; format: cell-based, human; details: single sgRNA, primary DM1 patient myoblasts; for % of CUG foci free nuclei (DNA-PKi): DNA-PKi treated
How it was run: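 CD56-purified primary DM1 patient myoblasts nucleofected with SluCas9:sgRNA RNP (30:90 pmol, single-cut), then DMSO or 3 μM DNA-PK inhibitor for 48 h. At 72 h post-nucleofection, cells fixed and stained for CUG foci with Cy3-PNA(CAG)5 probe (1 ng/μL, 80 °C), co-stained for MBNL1 and Hoechst, imaged by high-content confocal microscopy.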

[3] = tested on: 3′ UTR of the human DMPK gene; assay: Single-cut screening: indel editing efficiency by Sanger sequencing and ICE analysis in primary DM1 patient myoblasts; format: cell-based; details: vehicle-treated samples; for Indel efficiency: single SluCas9 sgRNA RNP in primary DM1 patient myoblasts, Sanger sequencing and ICE analysis; for indel efficiency (Sanger sequencing and ICE analysis): single-cut, SluCas9 RNP, 72 hrs post nucleofection, wild-type allele
How it was run: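 Indels were estimated by ICE from Sanger chromatograms of PCR amplicons covering the DMPK 3′ UTR wild-type allele, using only vehicle-treated samples; sgRNAs with R2<0.9 are flagged. Samples came from primary DM1 patient myoblasts (2 × 10^5) harvested 72 h after nucleofection with 30 pmol SluCas9 and 90 pmol single sgRNA RNP.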

Substance | % of CAG foci positive nuclei (DNA-PKi) [1] [%] | % of CAG foci positive nuclei (Vehicle) [1] [%] | % of CUG foci free nuclei (DNA-PKi) [2] [%] | % of CUG foci free nuclei (Vehicle) [2] [%] | Indel efficiency [3] [%] | indel efficiency (Sanger sequencing and ICE analysis) [3]
TCCAAAACGTGGATTGGGGTTG (guide RNA; chemistry not fully specified) [SluD74] | 1.55 | 2.27 | 31.37 | 10.6 | 56 | 
TCCGAGAGCAGCGCAAGTGAGG (guide RNA; chemistry not fully specified) [SluD51] | 2.13 | 2.15 | 28.86 | 14.34 | 33 | 
TCCGGGCCCGCCCCCTAGCggc (guide RNA; as printed in the source, key not given here) [SluU36] | 1.96 | 1.05 | 40.62 | 11.72 | 24 | 
TCGCGCCAGACGCTCCCCAGAG (guide RNA; chemistry not fully specified) [SluD35] | 1.13 | 1.04 | 12.47 | 6.61 | 0 | 
TCGGCCAGGCTGAGGCCCTGAC (guide RNA; chemistry not fully specified) [SluD05] | 1.1 | 1.42 | 26.99 | 26.95 | 22 | 
TCTTGTGCATGACGCCCTGCTC (guide RNA; chemistry not fully specified) [SluD31] | 3.21 | 3.06 | 23.95 | 14.17 | 63 | 
TGCACTGAGACCCCGACATTCC (guide RNA; chemistry not fully specified) [SluD79] | 1.79 | 0.82 | 25.61 | 11.48 | 2 | 
TGCGCTGCTCTCGGAGCCCCAG (guide RNA; chemistry not fully specified) [SluD54] | 2.85 | 2.11 | 33.12 | 10.7 | 26 | 
TGCTTTTGCCAAACCCGCTTTT (guide RNA; chemistry not fully specified) [SluD39] | 1.68 | 1.95 | 31.63 | 9.15 | 39 | 
TGGAAGACTGAGTGCCCGGGGC (guide RNA; chemistry not fully specified) [SluU14] | 1.63 | 1.02 | 58.84 | 29.12 | 52 | 
TGGAGGATGGAACACGGACGGC (listed as DNA, chemistry not fully specified) [SluD18] | 1.55 | 2.71 | 31.47 | 15.38 | 75 | high editing IN4DEL efficiency
TGGGCGGAGACCCACGCTCGGA (guide RNA; chemistry not fully specified) [SluU25] | 1.29 | 0.92 | 47.96 | 23.15 | 38 | 
TGTCTTCGACTCCGGGGCCCCG (listed as DNA, chemistry not fully specified) [SluU06] | 1.1 | 1.01 | 67.15 | 25.49 | 81 | high editing IN4DEL efficiency
TGTGAACTGGCAGGCGGTGGGC (guide RNA; chemistry not fully specified) [SluU17] | 1.28 | 1.5 | 67.55 | 21.96 | 32 | 
TGTGATCCGGGCCCGCCCCCTA (guide RNA; chemistry not fully specified) [SluU33] | 1.3 | 1.14 | 57.35 | 24.67 | 26 | 
TTATTCGCGAGGGTCGGGGGTG (guide RNA; chemistry not fully specified) [SluD89] | 2.54 | 0.61 | 11.37 | 10.23 | 0 | 
TTTATTCGCGAGGGTCGGGGGT (guide RNA; chemistry not fully specified) [SluD91] | 4.23 | 1 | 21.28 | 22.42 | 33 | 
TTTGCACTTTGCGAACCAACGA (guide RNA; chemistry not fully specified) [SluD29] | 2.38 | 1.72 | 28.37 | 7.97 | 35 | 
TTTTATTCGCGAGGGTCGGGGG (guide RNA; chemistry not fully specified) [SluD92] | 3.02 | 1.4 | 24.03 | 24.08 | 30 | 
ccccggccGCTAGGGGGCGGGC (guide RNA; as printed in the source, key not given here) [SluU39] | 2.5 | 0.71 | 36.78 | 10.53 | 11 | 
cccctccctccccggccGCTAG (guide RNA; as printed in the source, key not given here) [SluU46] | 1.5 | 0.74 | 62.89 | 14.46 | 41 | 
cgcggacccggcccctccctcc (CGCGGACCCGGCCCCTCCCTCC; guide RNA; chemistry not fully specified) [SluU53] | 2.9 | 1.44 | 61.52 | 22.52 | 31 | 
cgcggccggcgaacggggcTCG (guide RNA; as printed in the source, key not given here) [SluU59] | 1.4 | 1.35 | 72.56 | 23.05 | 92 | high editing IN4DEL efficiency
cggcccctccctccccggccGC (guide RNA; as printed in the source, key not given here) [SluU51] | 1.6 | 0.72 | 46.88 | 8.62 | 28 | 
cggggagggaggggccgggtcc (CGGGGAGGGAGGGGCCGGGTCC; guide RNA; chemistry not fully specified) [SluU52] | 2.65 | 0.74 | 65.25 | 23.34 | 34 | 
ctccctccccggccGCTAGGGG (guide RNA; as printed in the source, key not given here) [SluU45] | 2.36 | 1.11 | 43.15 | 12.63 | 14 | 
gagggaggggccgggtccgcgg (GAGGGAGGGGCCGGGTCCGCGG; guide RNA; chemistry not fully specified) [SluU54] | 1.28 | 1.14 | 53.64 | 13.12 | 10 | 
